Consider 30 compounds from patent publication US6583147B1, “Pyrazolopyrimidinone derivatives for the treatment of impotence” (Dong A Pharm Co., Ltd., priority 1998, dated 2003).

Molecules are shown by their SMILES. A value given as a limit tells only on which side of the number the result lay.

Data set [1] concerns rats. In words: Penile erection test using rats. The note with it: oral single dose 10 mg/kg in 0.5% methyl cellulose, observed for 2 hours. The class given is in vivo, rat.
Data set [2] concerns the target T1, Phosphodiesterase-5 enzyme (PDE 5) (Homo sapiens, UniProt O76074).
T1 construct: separated by HPLC (Mono Q anion exchange column) with concentration gradient of 0-500 mM NaCl to elute PDE isozymes; from tissue; host or cells: human corpus cavernosal tissue
In words: Test for phosphodiesterase-5 (PDE 5) activity. Conditions: PDE 5 fraction from human corpus cavernosal tissues. Format: biochemical.

A short description of data set [3]: Acute oral toxicity test in rats. Conditions: SD, rat, in vivo, 1 g/kg; rats, oral single dose; read-out: lethal dose (LD50) of oral administration.

Turning to `CCCc1nn(C)c2c(=O)[nH]c(-c3cc(S(=O)(=O)NCCC4CCCN4C)ccc3OCC)nc12` (centres unmarked) [Example 67], in data set [1], the “PEI (penile erection index)” value turned out to be 75.0 ± 61.2 and the “genital grooming (number of genital groomings)” value (“genital grooming” below) was determined as 1.8 ± 1.5. Further, the IC50 in data set [2] is 63 nM.
The like results for `CCCc1nn(CC)c2c(=O)[nH]c(-c3cc(S(=O)(=O)NCC4CCN(C)C4)ccc3OCC)nc12` (centres unmarked) [Example 61] were, in that order, 25.0 ± 28.9, 0.8 ± 0.5 and 93.9 nM.
`CCCc1nn(CC)c2c(=O)[nH]c(-c3cc(S(=O)(=O)NC4CC4)ccc3OCC)nc12` [Example 14, 5-[2-ethoxy-5-(cyclopropylamidosulfonyl)phenyl]-1-ethyl-3-propyl-1,6-dihydro-7H-pyrazolo(4,3-d)pyrimidin-7-one]: in data set [1], the “PEI (penile erection index)” value amounted to 233.3 ± 57.7 and the “genital grooming” value stood at 3.0 ± 1.0. Also, in data set [2], the IC50 was 79.5 nM. Moreover, in data set [3], the LD50 is above 1000 mg/kg.
As for `CCCNS(=O)(=O)c1ccc(OCC)c(-c2nc3c(CCC)nn(CC)c3c(=O)[nH]2)c1` [Example 8, 5-[2-ethoxy-5-(propylamidosulfonyl)phenyl]-1-ethyl-3-propyl-1,6-dihydro-7H-pyrazolo(4,3-d)pyrimidin-7-one], in data set [1], the “PEI (penile erection index)” value is given as 200.0 ± 100.0 and the “genital grooming” value is listed as 3.0 ± 1.0. Besides, inhibition in data set [2] was half-maximal at 25.3 nM (IC50). Further, the LD50 in data set [3] is above 1000 mg/kg.
As for `CCCc1nn(CC)c2c(=O)[nH]c(-c3cc(S(=O)(=O)NCc4ccccc4)ccc3OCC)nc12` [Example 24, 5-[2-ethoxy-5-(benzylamidosulfonyl)phenyl]-1-ethyl-3-propyl-1,6-dihydro-7H-pyrazolo(4,3-d)pyrimidin-7-one], in data set [1], the “PEI (penile erection index)” value is 233.3 ± 230.9 and the “genital grooming” value is recorded as 2.7 ± 2.9. It took 86 nM to reach half-maximal inhibition in data set [2] (IC50). Further, in data set [3], the LD50 was above 1000 mg/kg.
On to `CCCOc1ccc(S(=O)(=O)NC2CC2)cc1-c1nc2c(CCC)nn(C)c2c(=O)[nH]1` [Example 16], for which, in data set [1], the “PEI (penile erection index)” value is 100 ± 0 and the “genital grooming” value is given as 1.7 ± 0.6.
Consider `CCCc1nn(C)c2c(=O)[nH]c(-c3cc(S(=O)(=O)NC(C)C)ccc3OCC)nc12` [Example 1, 5-[2-ethoxy-5-(isopropylamidosulfonyl)phenyl]-1-methyl-3-propyl-1,6-dihydro-7H-pyrazolo(4,3-d)pyrimidin-7-one], for which, in data set [1], the “PEI (penile erection index)” value was 366.7 ± 38.5 and the “genital grooming” value worked out at 3.0 ± 1.0. Further, the concentration for half-maximal inhibition (IC50) in data set [2] is 8.63 nM. In data set [3], the LD50 was above 1000 mg/kg.
As to `CCCc1nn(C)c2c(=O)[nH]c(-c3cc(S(=O)(=O)NC4CCCC4)ccc3OCC)nc12` [Example 18], in data set [1], the “PEI (penile erection index)” value turned out to be 44.4 ± 38.5 and the “genital grooming” value is on record as 1.3 ± 0.6.
As for `CCCc1nn(CC)c2c(=O)[nH]c(-c3cc(S(=O)(=O)Nc4ccncc4)ccc3OCC)nc12` [Example 36, 5-[2-ethoxy-5-(4-pyridylamidosulfonyl)phenyl]-1-ethyl-3-propyl-1,6-dihydro-7H-pyrazolo(4,3-d)pyrimidin-7-one], in data set [1], the “PEI (penile erection index)” value is listed as 200.0 ± 173.2 and the “genital grooming” value is on record as 1.3 ± 0.6. The IC50 in data set [2] is 3.09 nM. Also, in data set [3], the LD50 is above 1000 mg/kg.
On to `CCCc1nn(C)c2c(=O)[nH]c(-c3cc(S(=O)(=O)NCc4ccncc4)ccc3OCC)nc12` [Example 43], for which, in data set [1], the “PEI (penile erection index)” value is 11.1 ± 19.3 and the “genital grooming” value came out at 0.7 ± 0.6.
Regarding `CCCc1nn(C)c2c(=O)[nH]c(-c3cc(S(=O)(=O)Nc4cc(C)cc(C)c4)ccc3OCC)nc12` [Example 32], in data set [1], the “PEI (penile erection index)” value worked out at 66.7 ± 66.7 and the “genital grooming” value is on record as 1.3 ± 1.5.
In the case of `CCCc1nn(C)c2c(=O)[nH]c(-c3cc(S(=O)(=O)NC(C)CC)ccc3OCC)nc12` (centres unmarked) [Example 10, 5-[2-ethoxy-5-(2-butylamidosulfonyl)phenyl]-1-methyl-3-propyl-1,6-dihydro-7H-pyrazolo(4,3-d)pyrimidin-7-one], in data set [1], the “PEI (penile erection index)” value came to 466.7 ± 305.5 and the “genital grooming” value was found to be 4.0 ± 1.7. In data set [2], this compound gave an IC50 of 3.78 nM. Also, the LD50 in data set [3] is above 1000 mg/kg.
For `CCCc1nn(C)c2c(=O)[nH]c(-c3cc(S(=O)(=O)Nc4ccccn4)ccc3OCC)nc12` [Example 42], in data set [1], the “PEI (penile erection index)” value was 33.3 ± 57.7 and the “genital grooming” value is reported as 1.3 ± 1.5.
Regarding `CCCc1nn(C)c2c(=O)[nH]c(-c3cc(S(=O)(=O)Nc4ccc(C)cc4)ccc3OCC)nc12` [Example 27], in data set [1], the “PEI (penile erection index)” value turned out to be 66.7 ± 66.7 and the “genital grooming” value is recorded as 2.7 ± 1.2.
Consider `CCCc1nn(C)c2c(=O)[nH]c(-c3cc(S(=O)(=O)NCc4ccccn4)ccc3OCC)nc12` [Example 50], for which, in data set [1], the “PEI (penile erection index)” value turned out to be 44.3 ± 38.5 and the “genital grooming” value stood at 1.0 ± 0.0.
On to `CCCc1nn(C)c2c(=O)[nH]c(-c3cc(S(=O)(=O)NC4CCC4)ccc3OCC)nc12` [Example 17], for which, in data set [1], the “PEI (penile erection index)” value is reported as 66.7 ± 66.7 and the “genital grooming” value is on record as 1.0 ± 1.0.
With `CCCc1nn(C)c2c(=O)[nH]c(-c3cc(S(=O)(=O)Nc4ccc(C(C)C)cc4)ccc3OCC)nc12` [Example 31, 5-[2-ethoxy-5-(4-isopropylphenylamidosulfonyl)phenyl]-1-methyl-3-propyl-1,6-dihydro-7H-pyrazolo(4,3-d)pyrimidin-7-one], in data set [1], the “PEI (penile erection index)” value turned out to be 300.0 ± 0 and the “genital grooming” value stood at 3.3 ± 0.6. Inhibition in data set [2] was half-maximal at 30.6 nM (IC50). Also, the LD50 in data set [3] was above 1000 mg/kg.
Consider `CCOc1ccc(S(=O)(=O)NC2CC2)cc1-c1nc2c(CC(C)C)nn(C)c2c(=O)[nH]1` [Example 15], for which, in data set [1], the “PEI (penile erection index)” value was 111.1 ± 101.8 and the “genital grooming” value is listed as 0.7 ± 0.6.
On to `CCCc1nn(CC)c2c(=O)[nH]c(-c3cc(S(=O)(=O)NCc4ccncc4)ccc3OCC)nc12` [Example 45], for which, in data set [1], the “PEI (penile erection index)” value turned out to be 22.2 ± 38.5 and the “genital grooming” value is 0.7 ± 1.2.
As to `CCOc1ccc(S(=O)(=O)NC(C)C)cc1-c1nc2c(CC(C)C)nn(C)c2c(=O)[nH]1` [Example 4], in data set [1], the “PEI (penile erection index)” value stood at 133.3 ± 57.7 and the “genital grooming” value amounted to 2.3 ± 1.2.
As to `CCCc1nn(C)c2c(=O)[nH]c(-c3cc(S(=O)(=O)NC(CC)CC)ccc3OCC)nc12` [Example 11], in data set [1], the “PEI (penile erection index)” value stood at 100 ± 0.0 and the “genital grooming” value is on record as 2.7 ± 2.1.
In the case of `CCCc1nn(C)c2c(=O)[nH]c(-c3cc(S(=O)(=O)Nc4ccc(F)cc4)ccc3OCC)nc12` [Example 26, 5-[2-ethoxy-5-(4-fluorophenylamidosulfonyl)phenyl]-1-methyl-3-propyl-1,6-dihydro-7H-pyrazolo(4,3-d)pyrimidin-7-one], in data set [1], the “PEI (penile erection index)” value was 133.3 ± 133.3 and the “genital grooming” value is 4.0 ± 1.7. Besides, the IC50 in data set [2] is 74.6 nM. Further, in data set [3], the LD50 was above 1000 mg/kg.
With `CCCc1nn(CC)c2c(=O)[nH]c(-c3cc(S(=O)(=O)Nc4cccnc4)ccc3OCC)nc12` [Example 40, 5-[2-ethoxy-5-(3-pyridylamidosulfonyl)phenyl]-1-ethyl-3-propyl-1,6-dihydro-7H-pyrazolo(4,3-d)pyrimidin-7-one], in data set [1], the “PEI (penile erection index)” value was 177.8 ± 203.7 and the “genital grooming” value is given as 1.7 ± 1.5. Besides, in data set [2], the IC50 was 8.7 nM. The LD50 in data set [3] was above 1000 mg/kg.
For `CCCc1nn(C)c2c(=O)[nH]c(-c3cc(S(=O)(=O)NC4CC4)ccc3OCC)nc12` [Example 13, 5-[2-ethoxy-5-(cyclopropylamidosulfonyl)phenyl]-1-methyl-3-propyl-1,6-dihydro-7H-pyrazolo(4,3-d)pyrimidin-7-one], in data set [1], the “PEI (penile erection index)” value is 300.0 ± 100.0 and the “genital grooming” value is given as 4.3 ± 1.2. For the same compound, in data set [2], the IC50 is 21.7 nM. The LD50 in data set [3] is above 1000 mg/kg.
Turning to `CCCc1nn(C)c2c(=O)[nH]c(-c3cc(S(=O)(=O)NC(C)(C)C)ccc3OCC)nc12` [Example 12], in data set [1], the “PEI (penile erection index)” value came out at 22.2 ± 38.5 and the “genital grooming” value was found to be 0.3 ± 0.6.
As to `CCCc1nn(C)c2c(=O)[nH]c(-c3cc(S(=O)(=O)NCC4CCCN4C)ccc3OCC)nc12` (centres unmarked) [Example 55], in data set [1], the “PEI (penile erection index)” value is listed as 350.0 ± 173.2 and the “genital grooming” value was found to be 3.8 ± 1.5. Besides, in data set [2], half-maximal inhibition (IC50) was put at 103 nM.
In the case of `CCOc1ccc(S(=O)(=O)NC2CCCCC2)cc1-c1nc2c(CC(C)C)nn(C)c2c(=O)[nH]1` [Example 20], in data set [1], the “PEI (penile erection index)” value was determined as 266.7 ± 57.7 and the “genital grooming” value is given as 2.3 ± 0.6.
The like results for `CCCc1nn(C)c2c(=O)[nH]c(-c3cc(S(=O)(=O)NCC4CCCO4)ccc3OCC)nc12` (centres unmarked) [Example 21] were, in that order, 44.4 ± 38.5 and 2.3 ± 1.5.
On to `CCCc1nn(C)c2c(=O)[nH]c(-c3cc(S(=O)(=O)Nc4ccccc4)ccc3OCC)nc12` [Example 25], for which, in data set [1], the “PEI (penile erection index)” value was found to be 44.4 ± 38.5 and the “genital grooming” value is 2.0 ± 0.0.
The like results for `CCOc1ccc(S(=O)(=O)Nc2ccc(C(C)(C)C)cc2)cc1-c1nc2c(CC(C)C)nn(C)c2c(=O)[nH]1` [Example 30] were, in that order, 133.3 ± 57.7 and 2.3 ± 0.6.
